# Data from patent US7247440B2, “Method of screening preventives or remedies for obesity” (Takeda Pharmaceutical Company Limited, priority 2001, dated 2007).
# Where a SMILES comes first, the peptide text is derived from it.
# Target: T1, GPR7 (Homo sapiens, UniProt P48145)
# T1 construct: expressed in transfected cells; host or cells: CHO dhfr- cells, plasmid pAKKO-Human GPR7 (high-expression clones 7, 8, 14)
# T1 sequence (P48145 1-328): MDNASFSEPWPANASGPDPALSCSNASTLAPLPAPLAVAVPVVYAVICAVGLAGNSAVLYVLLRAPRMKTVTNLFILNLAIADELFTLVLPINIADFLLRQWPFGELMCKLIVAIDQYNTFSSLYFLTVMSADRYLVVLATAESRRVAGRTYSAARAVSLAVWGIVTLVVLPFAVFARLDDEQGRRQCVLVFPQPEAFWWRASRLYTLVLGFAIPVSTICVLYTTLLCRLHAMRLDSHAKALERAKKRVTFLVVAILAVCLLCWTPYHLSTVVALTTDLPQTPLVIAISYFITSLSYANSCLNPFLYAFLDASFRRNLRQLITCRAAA
# Experiment: GTPγS-binding promoting activity on GPR7-expressed CHO cell membrane fraction
# Assay type: biochemical
# Experimental: The [^35S]-guanosine 5′-(γ-thio)triphosphate (GTPγS) binding promoting activity on the GPR7-expressed CHO cell membrane fraction was assayed by the following procedures.
# The GPR7-expressed CHO cell membrane fraction prepared by the method described in EXAMPLE 2 was diluted with a membrane dilution buffer (50 mM Tris-hydrochloride buffer (pH 7.4), 5 mM MgCl2, 150 mM NaCl, 1 μM GDP and 0.1% BSA) to prepare a cell membrane fraction solution for assay having a protein level of 30 μg/ml. To 200 μl of the cell membrane fraction solution for assay were added 2 μl of 50 nM [^35S]-guanosine 5′-(γ-thio)triphosphate (NEN Co.) and 2 μl of a sample solution in DMSO, which was adjusted to an appropriate concentration. The resulting mixture was kept warm at 25° C. for an hour. The mixture was filtrated through a filter. After the filter was washed twice with 1.5 ml of a wash buffer (50 mM Tris-hydrochloride buffer (pH 7.4), 5 mM MgCl2, 1 mM EDTA and 0.1% BSA), radioactivity of the filter was measured with a liquid scintillation counter.
# Following the procedures described in 1) above, hGPR8L (1-23) or hGPR8L (1-30) were given to the GPR7-expressed CHO cell membrane fraction in various concentrations to assay for the GTPγS-binding promoting activity. […]
row,Compound,EC50 [nM]
1,CSCC[C@H](NC(=O)[C@H](CC(C)C)NC(=O)[C@H](CC(C)C)NC(=O)CNC(=O)[C@H](C)NC(=O)[C@H](C)NC(=O)[C@H](CCCNC(=N)N)NC(=O)CNC(=O)[C@@H](NC(=O)[C@@H](NC(=O)[C@H](Cc1c[nH]cn1)NC(=O)[C@H](Cc1ccc(O)cc1)NC(=O)[C@H](CCCNC(=N)N)NC(=O)[C@@H]1CCCN1C(=O)[C@H](CO)NC(=O)[C@H](C)NC(=O)[C@@H](NC(=O)[C@@H](N)Cc1c[nH]cn1)C(C)C)[C@@H](C)O)C(C)C)C(=O)NCC(=O)N[C@@H](CC(C)C)C(=O)O [hGPR8L(4–23)] (H-HVASPRYHTVGRAAGLLMGL-OH; C-terminus assumed),> 10000
2,"CSCC[C@H](NC(=O)[C@H](CC(C)C)NC(=O)[C@H](CC(C)C)NC(=O)CNC(=O)[C@H](C)NC(=O)[C@H](C)NC(=O)[C@H](CCCNC(=N)N)NC(=O)CNC(=O)[C@@H](NC(=O)[C@@H](NC(=O)[C@H](Cc1c[nH]cn1)NC(=O)[C@H](Cc1ccc(O)cc1)NC(=O)[C@@H](N)CCCNC(=N)N)[C@@H](C)O)C(C)C)C(=O)NCC(=O)N[C@@H](CC(C)C)C(=O)O [hGPR8L(9–23), Arg-Tyr-His-Thr-Val-Gly-Arg-Ala-Ala-Gly-Leu-Leu-Met-Gly-Leu] (H-RYHTVGRAAGLLMGL-OH; C-terminus assumed)",> 10000
